Some test systems named below: KM12 colon; NCI-H23 lung; ACHN renal; HCT-116 colon; SF-539 CNS; HT29 colon; EKVX NSCLC; SK-MEL-28 melanoma; HCC-2998 colon; IGROV1 ovarian.
Assay in all cases: growth of human tumour cells (NCI), 48 h

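Five concentrations, 48 hours, 96-well plates. Abbreviation: GI50, concentration required for 50% inhibition of growth. At the TGI there is no net growth.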

In the case of `CC1=C(C(=O)OC(C)(C)C)C(c2ccc([N+](=O)[O-])cc2)C(C(=O)OC(C)(C)C)=C(C)N1`, the TGI amounted to 38.5 µM in the experiment with KM12 colon; 45.3 µM in the experiment with NCI-H23 lung; 41.3 µM with ACHN renal; 36.4 µM in the experiment with HCT-116 colon; 34.9 µM in the experiment on SF-539 CNS; 48.8 µM with HT29 colon. The TGI was 38.4 µM in the experiment on EKVX NSCLC, 43.4 µM in the experiment with SK-MEL-28 melanoma, 27.2 µM with HCC-2998 colon and 32.2 µM in the experiment with IGROV1 ovarian.

As to `C/C(=N\NC(=O)c1ccncc1)c1ccccc1O`, the GI50 in the experiment on KM12 colon was 2.95 µM; with NCI-H23 lung, 4.34 µM; with ACHN renal it was 1.64 µM; in the experiment with HCT-116 colon, 2.32 µM; with SF-539 CNS, 2.78 µM; with HT29 colon it was 1.6 µM. Also, the GI50 in the experiment on EKVX NSCLC is 2.34 µM; in the experiment on SK-MEL-28 melanoma, 20.9 µM; in the experiment on HCC-2998 colon it was 2.37 µM; in the experiment on IGROV1 ovarian, 1.8 µM. Besides, the TGI in the experiment on KM12 colon, in the experiment on NCI-H23 lung, with ACHN renal, in the experiment with HCT-116 colon, in the experiment with SF-539 CNS and in the experiment with HT29 colon was above 100 µM each time. Besides, the TGI in the experiment on EKVX NSCLC is above 100 µM; in the experiment with SK-MEL-28 melanoma, above 100 µM; in the experiment with HCC-2998 colon, 68.7 µM; with IGROV1 ovarian, above 100 µM.

Take `CCC(=C(c1ccc(OCCN(CC)CC)cc1)c1ccc(OCCN(CC)CC)cc1)c1ccc(Cl)cc1`: the GI50 in the experiment on KM12 colon is 0.611 µM; in the experiment with NCI-H23 lung, 0.652 µM; with ACHN renal it was 0.596 µM; in the experiment on HCT-116 colon, 0.508 µM; in the experiment with SF-539 CNS it was 0.552 µM; with HT29 colon it was 0.51 µM. In addition, the GI50 with EKVX NSCLC is 0.641 µM; in the experiment with SK-MEL-28 melanoma it was 0.592 µM; in the experiment on HCC-2998 colon it was 0.532 µM; with IGROV1 ovarian it was 0.618 µM. Also, the TGI in the experiment with KM12 colon amounted to 1.18 µM; in the experiment with NCI-H23 lung, 1.41 µM; in the experiment with ACHN renal, 1.08 µM; in the experiment on HCT-116 colon it was 0.995 µM; in the experiment with SF-539 CNS, 1.04 µM; in the experiment with HT29 colon, 1.15 µM. For the same compound, the TGI with EKVX NSCLC was 1.46 µM; with SK-MEL-28 melanoma, 1.09 µM; in the experiment on HCC-2998 colon, 1.02 µM; in the experiment on IGROV1 ovarian, 1.15 µM.

As for `Cc1c(-c2ccc(N3CCc4cccc(C(=O)Nc5nc6ccccc6s5)c4C3)nc2C(=O)O)cnn1CC12CC3CC(CC(C3)C1)C2`, the GI50 is 4.97 µM in the experiment with KM12 colon; 13.4 µM with NCI-H23 lung; 4.83 µM with ACHN renal; 3.23 µM in the experiment on HCT-116 colon; 6.51 µM in the experiment with SF-539 CNS; 7.79 µM in the experiment with HT29 colon. For the same compound, the GI50 in the experiment with EKVX NSCLC was 8.62 µM; with SK-MEL-28 melanoma it was 6.27 µM; in the experiment on HCC-2998 colon, below 0.0329 µM; in the experiment with IGROV1 ovarian, 12.6 µM. In addition, the TGI in the experiment on KM12 colon turned out to be 20.6 µM; in the experiment on NCI-H23 lung it was 35.4 µM; in the experiment with ACHN renal, 18.5 µM; with HCT-116 colon it was 14.9 µM; in the experiment on SF-539 CNS, 21.8 µM; in the experiment with HT29 colon it was 25.3 µM. Moreover, the TGI came to 28.3 µM with EKVX NSCLC, 19.3 µM with SK-MEL-28 melanoma, 1.34 µM with HCC-2998 colon and 31.5 µM with IGROV1 ovarian.

For the compound `COc1cc(COC(=O)NC(Cc2cccs2)C(=O)O)c([N+](=O)[O-])cc1OC` (stereo unspecified), the TGI in the experiment on KM12 colon, in the experiment with NCI-H23 lung, in the experiment on ACHN renal, in the experiment on HCT-116 colon, in the experiment on SF-539 CNS and in the experiment with HT29 colon was above 100 µM in each case. For the same compound, the TGI with EKVX NSCLC, in the experiment on SK-MEL-28 melanoma, in the experiment on HCC-2998 colon and in the experiment with IGROV1 ovarian was above 100 µM throughout.

`Cc1cc2c(SCc3ccccc3Cl)nc(N)nc2nc1C`: the TGI in the experiment with KM12 colon, in the experiment on NCI-H23 lung, in the experiment on ACHN renal, with HCT-116 colon, in the experiment on SF-539 CNS and with HT29 colon was above 100 µM in each case. Besides, the TGI in the experiment with EKVX NSCLC, in the experiment on SK-MEL-28 melanoma, in the experiment on HCC-2998 colon and with IGROV1 ovarian was above 100 µM in each case.

On to `COC(=O)C1=C(C)C(=O)C2(CCCCCC2C(=O)OC)C1` (stereo unspecified), for which the TGI in the experiment on KM12 colon, in the experiment with NCI-H23 lung, in the experiment on ACHN renal, with HCT-116 colon, in the experiment on SF-539 CNS and in the experiment with HT29 colon was above 100 µM in each case. The TGI in the experiment on EKVX NSCLC, in the experiment on SK-MEL-28 melanoma, with HCC-2998 colon and with IGROV1 ovarian was above 100 µM throughout.

For the compound `O=c1cccccc1[O-].O=c1cccccc1[O-].O=c1cccccc1[O-].[Dy+3]`, the TGI is above 100 µM with KM12 colon; 66.4 µM in the experiment on NCI-H23 lung; above 100 µM in the experiment on ACHN renal; 41.4 µM in the experiment on HCT-116 colon; 78 µM in the experiment on SF-539 CNS; above 100 µM with HT29 colon. The TGI in the experiment on EKVX NSCLC, in the experiment on SK-MEL-28 melanoma, with HCC-2998 colon and in the experiment on IGROV1 ovarian was above 100 µM in each case. Further, in the experiment with SF-539 CNS, the GI50 is 17.9 µM.

On to `O=C(NCc1cccnc1)c1ccc([N+](=O)[O-])o1`, for which the GI50 in the experiment on KM12 colon is 1.32 µM; with NCI-H23 lung, 2.26 µM; with ACHN renal, 3.56 µM; in the experiment with HCT-116 colon, 1.42 µM; in the experiment on SF-539 CNS it was 1.12 µM; with HT29 colon, 0.825 µM. The GI50 in the experiment on EKVX NSCLC is 13.3 µM; with SK-MEL-28 melanoma it was 2.83 µM; in the experiment on HCC-2998 colon, 1.83 µM; in the experiment with IGROV1 ovarian, 4.52 µM. In addition, the TGI is 5.32 µM with KM12 colon; 6.85 µM with NCI-H23 lung; above 15.5 µM in the experiment on ACHN renal; 13.4 µM in the experiment with HCT-116 colon; 3.76 µM with SF-539 CNS; 2.37 µM in the experiment with HT29 colon. Besides, the TGI in the experiment on EKVX NSCLC is above 32.5 µM; in the experiment with SK-MEL-28 melanoma, 7.58 µM; in the experiment on HCC-2998 colon it was 6.05 µM; in the experiment on IGROV1 ovarian, above 24.5 µM.

For the origin of these results see PubChem BioAssay (NCI).
